According to patent EP1000039B1 (Wyeth Holdings Corporation, priority 1997, dated 1999):
Converted amounts (≈) assume the structure as drawn.

Experiments:
[1] = tested on: Human Epidermoid Tumors (A431); experiment: In Vivo Inhibition of the Growth of Human Epidermoid Tumors (A431) in mice; conditions: days 1 through 10
A2780S = experiment: Inhibition of Cancer Cell Growth (Sulforhodamine B); assay type: cell-based, Human; conditions: Homo sapiens, 48 hours exposure, read-out: Inhibition of Cancer Cell Growth as Measured by Cell Number (IC50) A2780S
Experimental: (§1) After 48 hours exposure to test compounds, cells were fixed with trichloroacetic acid, and stained with Sulforhodamine B. After washing with trichloroacetic acid, bound dye was solubilized in 10 mM Tris base and optical density was determined using plate reader. Under conditions of the assay the optical density is proportional to the number of cells in the well. […] The test procedure is described in details by Philip Skehan et. al. J.Natl. Canc. […]

SW620 = experiment: as above; assay type: cell-based, Human; conditions: Homo sapiens, SW-620, 48 hours exposure, read-out: Inhibition of Cancer Cell Growth as Measured by Cell Number (IC50) SW620
Experimental: as §1

A2780DDP = experiment: as above; assay type: cell-based, Human; conditions: Homo sapiens, 48 hours exposure, read-out: Inhibition of Cancer Cell Growth as Measured by Cell Number (IC50) A2780DDP
Experimental: as §1

A431 = experiment: as above; assay type: cell-based, Human; conditions: Homo sapiens, A-431, 48 hours exposure, read-out: Inhibition of Cancer Cell Growth as Measured by Cell Number (IC50) A431
Experimental: as §1

MCF7 = experiment: as above; assay type: cell-based, Human; conditions: Homo sapiens, 48 hours exposure, read-out: Inhibition of Cancer Cell Growth as Measured by Cell Number (IC50) MCF7
Experimental: as §1

LOX = experiment: as above; assay type: cell-based, Human; conditions: Homo sapiens, 48 hours exposure, read-out: Inhibition of Cancer Cell Growth as Measured by Cell Number (IC50) LOX
Experimental: as §1

MB435 = experiment: as above; assay type: cell-based, Human; conditions: Homo sapiens, 48 hours exposure, read-out: Inhibition of Cancer Cell Growth as Measured by Cell Number (IC50) MB435
Experimental: as §1

SKBR3 = experiment: as above; assay type: cell-based, Human; conditions: Homo sapiens, SK-BR-3, 48 hours exposure, read-out: Inhibition of Cancer Cell Growth as Measured by Cell Number (IC50) SKBR3
Experimental: as §1

[2] = target: T1, His-tagged cytoplasmic domain of EGFR (Homo sapiens, UniProt P00533); experiment: Inhibition of Epidermal Growth Factor Receptor Kinase (EGF-R) using recombinant enzyme, RR-SRC peptide phosphorylation; assay type: biochemical; conditions: recombinant enzyme; average of the number of tests; read-out: IC50
T1 construct: containing the EGFR cDNA encoding amino acids 645 - 1186 preceded by Met-Ala-(His)6; Met-Ala-(His)6 (N); made in house; host or cells: Sf9 insect cells, recombinant baculovirus vHcEGFR52
Experimental: The enzyme used in this assay is the His-tagged cytoplasmic domain of EGFR. […] Sf9 cells in 100 mm plates were infected at an moi of 10 pfu/cell and cells were harvested 48 h post infection. A cytoplasmic extract was prepared using 1% Triton X-100 and applied to Ni-NTA column. After washing the column with 20 mM imidazole, HcEGFR was eluted with 250 mM imidazole (in 50 mM Na2HPO4, pH 8.0, 300 mM NaCl). Fractions collected were dialyzed against 10 mM HEPES, pH 7.0, 50 mM NaCl, 10% glycerol, 1ug/mL antipain and leupeptin and 0. 1 mM Pefabloc SC. The protein was frozen in dry ice/methanol and stored -70°C.
For the enzyme reaction, 10 uL of each inhibitor (at various concentrations) were added to each well of a 96-well plate. To this was added 3 uL of enzyme (1: 10 dilution in 10mM HEPES, pH 7.4 for final conc. of 1:120). This was allowed to sit for 10 min on ice and was followed by the addition of 5 ul peptide (80 uM final conc.), 10ul of 4X Buffer (Table A), 0.25 uL ^33P-ATP and 12 uL H2O. The reaction was allowed to run for 90 min at room temperature and was followed by spotting the entire volume on to precut P81 filter papers. The filter discs were washed 2X with 0.5% phosphoric acid and radioactivity was measured using a liquid scintillation counter.

[3] = tested on: Human Epidermoid Tumors (A431); experiment: In Vivo Inhibition of the Growth of Human Epidermoid Tumors (A431) in mice
Experimental: BALB/c nu/nu female mice (Charles River, Wilmington, MA) were used in the in vivo standard pharmacological test procedures. Human epidermoid carcinoma cells A-431 (American Type Culture Collection, Rockville, Maryland # CRL-155) were grown in vitro as described above. A unit of 5 X 10^6 cells were injected SC into mice. When tumors attained a mass of between 100 and 150 mg, the mice were randomized into treatment groups (day zero). Mice were treated iP or PO once a day either on days 1, 5, and 9 or on days 1 through 10 post staging with doses of either 80, 40 or 20, or 10 mg/kg/dose of the compound to be evaluated in 0.2% Klucel. Control animals received no drug. Tumor mass was determined every 7 days [(length X width^2)/2) for 28 days post staging. Relative tumor growth (Mean tumor mass on day 7, 14, 21, and 28 divided by the mean tumor mass on day zero) is determined for each treatment group. The %T/C (Tumor/Control) is determined by dividing the relative tumor growth of the treated group by the relative tumor growth of the placebo group and multiplying by 100. A compound is considered to be active if the %T/C is found to be […].

[4] = target: epidermal growth factor receptor kinase (Homo sapiens, UniProt P00533); experiment: Inhibition of Epidermal Growth Factor Receptor Kinase (EGF-R), cell membrane preparation (A431 membrane extract), RR-SRC peptide phosphorylation; conditions: average of the number of tests
Sequence of epidermal growth factor receptor kinase (P00533 25-1210): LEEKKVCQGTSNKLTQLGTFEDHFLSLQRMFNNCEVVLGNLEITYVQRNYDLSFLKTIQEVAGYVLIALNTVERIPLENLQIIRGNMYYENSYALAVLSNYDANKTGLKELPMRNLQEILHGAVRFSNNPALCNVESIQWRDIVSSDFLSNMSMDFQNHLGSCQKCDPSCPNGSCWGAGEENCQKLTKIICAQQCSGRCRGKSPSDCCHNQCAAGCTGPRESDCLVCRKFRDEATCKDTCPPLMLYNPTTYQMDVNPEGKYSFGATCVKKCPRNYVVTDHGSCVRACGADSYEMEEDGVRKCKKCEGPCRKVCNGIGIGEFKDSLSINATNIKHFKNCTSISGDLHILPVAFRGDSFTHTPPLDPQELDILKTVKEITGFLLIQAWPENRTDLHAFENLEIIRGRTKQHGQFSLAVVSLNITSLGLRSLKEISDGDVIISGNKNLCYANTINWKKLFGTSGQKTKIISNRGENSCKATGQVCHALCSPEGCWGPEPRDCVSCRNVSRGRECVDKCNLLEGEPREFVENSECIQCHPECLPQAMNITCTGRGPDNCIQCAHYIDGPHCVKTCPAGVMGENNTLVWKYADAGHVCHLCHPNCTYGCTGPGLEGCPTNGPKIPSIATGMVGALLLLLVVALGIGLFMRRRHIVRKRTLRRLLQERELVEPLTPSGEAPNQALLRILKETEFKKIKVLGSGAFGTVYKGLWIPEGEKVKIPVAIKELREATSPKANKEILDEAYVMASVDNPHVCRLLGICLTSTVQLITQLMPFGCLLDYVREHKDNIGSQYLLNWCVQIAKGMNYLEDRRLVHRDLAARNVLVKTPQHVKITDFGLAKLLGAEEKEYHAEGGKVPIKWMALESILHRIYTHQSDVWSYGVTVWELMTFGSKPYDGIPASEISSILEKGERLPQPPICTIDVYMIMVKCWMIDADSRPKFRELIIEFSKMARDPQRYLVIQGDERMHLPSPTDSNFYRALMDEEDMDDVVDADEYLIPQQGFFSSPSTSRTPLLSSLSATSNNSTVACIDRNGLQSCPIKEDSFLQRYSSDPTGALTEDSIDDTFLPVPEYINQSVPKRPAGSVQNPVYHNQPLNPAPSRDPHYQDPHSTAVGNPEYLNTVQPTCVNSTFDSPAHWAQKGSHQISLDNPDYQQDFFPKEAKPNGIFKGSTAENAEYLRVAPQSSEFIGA
Experimental: Test compounds were evaluated for their ability to inhibit the phosphorylation of the tyrosine residue of a peptide substrate catalyzed by the enzyme epidermal growth factor receptor kinase. […] The enzyme was obtained as a membrane extract of A431 cells (American Type Culture Collection, Rockville, MD). A431 cells were grown in T175 flasks to 80% confluency. The cells were washed twice with phosphate buffered saline (PBS) without Ca^2+. Flasks were rotated for 1.5 hours in 20 mL PBS with 1.0 mM ethylenediaminetetraacetic acid (EDTA) at room temperature and centrifuged at 600g for 10 minutes. […]
An aliquot of the A431 membrane extract (10 mg/mL) was diluted in 30 mM HEPES (pH 7.4) to give a protein concentration of 50 ug/mL. […] The % inhibition of the test compound was determined for at least three different concentrations and the IC50 value was evaluated from the dose response curve. […] CPM(control) is in units of counts per minute and was a number expressing the amount of radiolabled ATP (γ-^33P) incorporated onto the RR-SRC peptide substrate by the enzyme after 30 minutes at 30°C in the absence of test compound as measured by liquid scintillation counting. […]

T1 sequence (P00533 669-1210): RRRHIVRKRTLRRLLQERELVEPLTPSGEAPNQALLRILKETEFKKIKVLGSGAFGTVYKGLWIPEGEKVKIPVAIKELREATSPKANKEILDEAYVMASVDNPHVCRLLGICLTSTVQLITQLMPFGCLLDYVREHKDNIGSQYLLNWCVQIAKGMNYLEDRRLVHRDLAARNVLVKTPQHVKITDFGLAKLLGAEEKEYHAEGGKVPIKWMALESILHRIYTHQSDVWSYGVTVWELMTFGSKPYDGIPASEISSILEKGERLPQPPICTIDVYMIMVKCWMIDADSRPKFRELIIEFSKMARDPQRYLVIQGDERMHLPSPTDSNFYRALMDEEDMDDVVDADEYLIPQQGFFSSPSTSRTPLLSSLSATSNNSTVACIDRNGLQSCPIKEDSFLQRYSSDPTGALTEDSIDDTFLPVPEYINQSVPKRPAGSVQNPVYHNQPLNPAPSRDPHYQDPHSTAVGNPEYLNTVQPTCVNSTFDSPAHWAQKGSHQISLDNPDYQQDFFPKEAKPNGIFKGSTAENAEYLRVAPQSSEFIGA

Structure (SMILES)	IC50 (A2780S) [µg/mL]	IC50 (SW620) [µg/mL]	IC50 (A2780DDP) [µg/mL]	IC50 (A431) [µg/mL]	IC50 (MCF7) [µg/mL]	IC50 (LOX) [µg/mL]	IC50 (MB435) [µg/mL]	IC50 (SKBR3) [µg/mL]	IC50 [2] [nM]	IC50 [4] [nM]	%T/C Day 16 ([1]; 10 mg/kg/dose PO (footnote: IP)) [%]	%T/C Day 16 ([1]; 20 mg/kg/dose PO (footnote: IP)) [%]	%T/C Day 16 ([1]; 40 mg/kg/dose PO (footnote: IP)) [%]	S/T (No. Survivors/No. Treated on Day +28 post tumor staging) ([3]; Table 5: 40 PO, days 1 through 10)	%T/C Day 7 ([3]; Table 5: 40 PO, days 1 through 10, Day 7) [%]	%T/C Day 14 ([3]; Table 5: 40 PO, days 1 through 10, Day 14) [%]	%T/C Day 21 ([3]; Table 5: 40 PO, days 1 through 10, Day 21) [%]	%T/C Day 28 ([3]; Table 5: 40 PO, days 1 through 10, Day 28) [%]	inhibition of tumor growth in vivo (result in words) ([3]; summary of the results of TABLE 4 / TABLE 5)
CN(C)CC#CC(=O)Nc1ccc2ncnc(Nc3cccc(Br)c3)c2c1 [Example 21, 4-Dimethylamino-but-2-ynoic acid [4-(3-bromo-phenylamino)-quinazolin-6-yl]-amide]											56	82	84						
CCN(CC)CC#CC(=O)Nc1ccc2ncnc(Nc3cccc(Br)c3)c2c1 [Example 25, 4-Diethylamino-but-2-ynoic acid [4-(3-bromo-phenylamino)-quinazolin-6-yl]-amide]	0.04 (≈ 0.0884 µM)	0.07 (≈ 0.155 µM)	0.04 (≈ 0.0884 µM)	0.06 (≈ 0.133 µM)	0.74 (≈ 1.64 µM)	0.1 (≈ 0.221 µM)	0.05 (≈ 0.111 µM)	0.004 (≈ 0.00884 µM)	14					4/5	71	33	40	52	effective inhibitor of tumor growth in vivo
CCOc1c(Nc2ccc3ncnc(Nc4cccc(Br)c4)c3c2)c(=O)c1=O [Example 48, 3-[4-(3-Bromo-phenylamino)-quinazolin-6-ylamino]-4-ethoxy-cyclobut-3-ene-1,2-dione]	4.74 (≈ 10.8 µM)	2.81 (≈ 6.4 µM)	3.71 (≈ 8.45 µM)	3.11 (≈ 7.08 µM)	5.42 (≈ 12.3 µM)	3.55 (≈ 8.08 µM)	5.48 (≈ 12.5 µM)	3.79 (≈ 8.63 µM)	2										
CN(C)c1c(Nc2ccc3ncnc(Nc4cccc(Br)c4)c3c2)c(=O)c1=O [Example 49, 3-[4-(3-Bromo-phenylamino)-quinazolin-6-ylamino]-4-dimethylamino-cyclobut-3-ene-1,2-dione]	4.81 (≈ 11 µM)	3.61 (≈ 8.24 µM)	3.16 (≈ 7.21 µM)	2.83 (≈ 6.46 µM)	6.72 (≈ 15.3 µM)	3.48 (≈ 7.94 µM)	5.2 (≈ 11.9 µM)	3.57 (≈ 8.15 µM)	100										
CNc1c(Nc2ccc3ncnc(Nc4cccc(Br)c4)c3c2)c(=O)c1=O [Example 50, 3-[4-(3-Bromo-phenylamino)-quinazolin-6-ylamino]-4-methylamino-cyclobut-3-ene-1,2-dione]	> 100	> 100	> 100	> 100	> 100	> 100	> 100	> 100	0.4										

Further lines, with some results ahead:

IC50 (A2780S) [µg/mL]	IC50 (SW620) [µg/mL]	IC50 (A2780DDP) [µg/mL]	IC50 (A431) [µg/mL]	IC50 (MCF7) [µg/mL]	IC50 (LOX) [µg/mL]	IC50 (MB435) [µg/mL]	IC50 (SKBR3) [µg/mL]	IC50 [2] [nM]	IC50 [4] [nM]	Structure (SMILES)	%T/C Day 16 ([1]; 10 mg/kg/dose PO (footnote: IP)) [%]	%T/C Day 16 ([1]; 20 mg/kg/dose PO (footnote: IP)) [%]	%T/C Day 16 ([1]; 40 mg/kg/dose PO (footnote: IP)) [%]	S/T (No. Survivors/No. Treated on Day +28 post tumor staging) ([3]; Table 5: 40 PO, days 1 through 10)	%T/C Day 7 ([3]; Table 5: 40 PO, days 1 through 10, Day 7) [%]	%T/C Day 14 ([3]; Table 5: 40 PO, days 1 through 10, Day 14) [%]	%T/C Day 21 ([3]; Table 5: 40 PO, days 1 through 10, Day 21) [%]	%T/C Day 28 ([3]; Table 5: 40 PO, days 1 through 10, Day 28) [%]	inhibition of tumor growth in vivo (result in words) ([3]; summary of the results of TABLE 4 / TABLE 5)
56.9 (≈ 139 µM)	> 100	6.92 (≈ 16.9 µM)	6.84 (≈ 16.7 µM)	> 100	56.5 (≈ 138 µM)	> 100	6.21 (≈ 15.1 µM)	7		Nc1c(Nc2ccc3ncnc(Nc4cccc(Br)c4)c3c2)c(=O)c1=O [Example 51, 3-Amino-4-[4-(3-bromo-phenylamino)-quinazolin-6-ylamino]-cyclobut-3-ene-1,2-dione]									
0.02 (≈ 0.0439 µM)	0.1 (≈ 0.22 µM)	0.5 (≈ 1.1 µM)	0.4 (≈ 0.879 µM)	5 (≈ 11 µM)	0.2 (≈ 0.439 µM)	2.8 (≈ 6.15 µM)	0.3 (≈ 0.659 µM)	2		COCCOCC#CC(=O)Nc1ccc2ncnc(Nc3cccc(Br)c3)c2c1 [Example 55, 4-(2-Methoxy-ethoxy)-but-2-ynoic acid [4-(3-bromo-phenylamino)-quinazolin-6-yl]-amide]									
0.7 (≈ 1.59 µM)	1.8 (≈ 4.08 µM)	2.5 (≈ 5.67 µM)	2.8 (≈ 6.35 µM)	8.7 (≈ 19.7 µM)	0.9 (≈ 2.04 µM)	5.7 (≈ 12.9 µM)	1.2 (≈ 2.72 µM)	8		COCOCC#CC(=O)Nc1ccc2ncnc(Nc3cccc(Br)c3)c2c1 [Example 57, 4-Methoxymethoxy-but-2-ynoic acid [4-(3-bromo-phenylamino)-quinazolin-6-yl]-amide]									
0.424 (≈ 1.03 µM)	0.581 (≈ 1.41 µM)	0.603 (≈ 1.46 µM)	0.315 (≈ 0.762 µM)	1.58 (≈ 3.82 µM)	0.482 (≈ 1.17 µM)				1.26	C=C(CNc1ccc2ncnc(Nc3cccc(Br)c3)c2c1)C(=O)OC [Example 59, 2-{[4-(3-Bromo-phenylamino)-quinazolin-6-ylamino]-methyl)-acrylic acid methyl ester]									
0.749 (≈ 1.81 µM)	1.89 (≈ 4.57 µM)	0.626 (≈ 1.51 µM)	0.35 (≈ 0.847 µM)	0.566 (≈ 1.37 µM)	0.725 (≈ 1.75 µM)				34	COC(=O)/C=C/CNc1ccc2ncnc(Nc3cccc(Br)c3)c2c1 [Example 60, (E)-4-[4-(3-Bromo-phenylamino)-quinazolin-6-ylamino]-but-2-enoicacid methyl ester]									
1.86 (≈ 5.38 µM)	0.43 (≈ 1.24 µM)	1.39 (≈ 4.02 µM)	0.73 (≈ 2.11 µM)	3.62 (≈ 10.5 µM)	0.5 (≈ 1.45 µM)	4.35 (≈ 12.6 µM)	0.04 (≈ 0.116 µM)	80		CC#CC(=O)Nc1ccc2ncnc(Nc3cccc(N(C)C)c3)c2c1 [Example 61, But-2-ynoic acid [4-(3-dimethylamino-phenylamino)-quinazolin-6-yl]-amide]									
